In patent US11286263B2, “Macrocyclic fluorine substituted indole derivatives” (The Broad Institute, Inc., priority 2017, dated 2022):
“And” between values parts separate entries of the source, which are not always exact repeats. Identical values can stand only once.

Columns and labels:
MV-4-11 = assay: Antiproliferation assay MV-4-11 (Assay 7); assay type: cell-based; conditions: MV-4-11 cells, 72 h, CellTiter-Glo; single determinations; read-out: IC50 Antiproli MV-4-11
Method in brief: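 A reference plate measured at day 0 set the time-zero baseline. Treated plates were read by CellTiter-Glo luminescence after 72 h of compound exposure at 37°C in a humidified incubator.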

BCL-XL = BCL-XL (Homo sapiens (Human), UniProt Q07817); assay: Protein-protein interaction assay BCL-XL/Bad BH3 peptide (BCL-XL assay), TR-FRET; assay type: binding; conditions: median
Protocol: Assay 2 Protein-Protein Interaction Assay: BCL-XL/Bad BH3 Peptide (BCL-XL Assay)
The dose-dependent inhibition by the compounds described in this invention of the interaction between BCL-XL and the BH3 domain of Bad (both human) was determined using a steady state binding competition assay with time-resolved fluorescence energy transfer (TR-FRET) readout. For that purpose BCL-XL (amino acids 1-212, C-terminal fused to a hexahistidine (6× His) tag (SEQ ID 3) and a synthetic Bad BH3-derived peptide of sequence Biotin-PEG2-PEG2-NLWAAQRYGRELRR-Nle-SDEFVDSFKK-amide (SEQ ID 4) served as protein receptor and tracer ligand respectively. The recombinant BCL-XL protein (expressed in Ecol) was purchased from BPS Bioscience (San Diego, Calif., USA). The Bad BH3-derived peptide can be obtained from e.g. Biosyntan (Berlin, Germany).
In the assay 11 different concentrations of each compound (0.1 nM, 0.33 nM, 1.1 nM, 3.8 nM, 13 nM, 44 nM, 0.15 μM, 0.51 μM, 1.7 μM, 5.9 μM and 20 μM) were typically measured as duplicates in the same microtiter plate. For that, 100-fold concentrated DMSO solutions were prepared by serial dilutions (1:3.4) of a 2 mM stock solution in a clear, 384-well microtiter plate (Greiner Bio-One, Frickenhausen, Germany). From there, 50 nl were transferred in a dark test plate (Greiner Bio-One, Frickenhausen, Germany). The assay was initiated by addition of 2 μl of a 2,5-fold concentrated His-BCL-XL solution (usually for a 1 nM end concentration in 5 μl reaction volume) in aqueous assay buffer [50 mM Tris/HCl pH 7, 100 mM sodium chloride (NaCl), 50 μM potassium fluoride (KF), 0.005% Tween-20, 2 mM DTT, 0.1% bovine gamma globulin (BGG)] to the compounds in the assay plate. This was followed by a 10-minute incubation step at 22° C. for pre-equilibration of the putative complex between His-BCL-XL and the compounds. After that, 3 μl of a 1.67-fold concentrated solution (in assay buffer) consisting of Bad BH3-derived peptide (1 nM end concentration) and TR-FRET detection reagents [1.67 nM anti-His-Eu cryptate and 1.67 nM streptavidin-XL665 (both from Cisbio Bioassays, Codolet, France)], were added.
The mixture was incubated in the dark for one hour at 22° C. and then overnight at 4° C. The formation of BCL-XL/Bad complexes was determined by measuring the resonance energy transfer of the anti-His-Eu-cryptate antibody to the streptavidin-XL665 present in the reaction. For that purpose, the fluorescence emission at 620 nm and 665 nm after excitation at 330-350 nm was measured in a TR-FRET measuring instrument, for instance a Rubystar or a Pherastar (both from BMG Lab Technologies, Offenburg, Germany) or a Viewlux (Perkin-Elmer). The ratio of the emission at 665 nm and at 622 nm was used as indicator of the amount of BCL-XL/Bad complexes present.
The resulting data (ratio) were normalized, taking 0% inhibition as the mean value of control measurements (usually 32 data points) where all reagents were included. In this case 50 nl DMSO were used instead of compounds. A 100% inhibition corresponded to the mean value of control measurements (usually 32 data points) where all reagents except BCL-XL were included. IC50 values were determined by regression analysis based on a 4 parameter equation (minimum, maximum, IC50, Hill; Y=Max+(Min−Max)/(1+(X/IC50)^Hill) using the Screener Software (Genedata).

Chain of BCL-XL (Q07817 1-212): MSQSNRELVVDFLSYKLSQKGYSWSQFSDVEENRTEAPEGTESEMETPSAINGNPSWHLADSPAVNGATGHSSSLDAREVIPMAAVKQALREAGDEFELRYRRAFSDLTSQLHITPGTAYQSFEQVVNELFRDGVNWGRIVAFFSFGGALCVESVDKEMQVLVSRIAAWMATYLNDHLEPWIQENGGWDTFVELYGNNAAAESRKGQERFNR

IC50 (MV-4-11) | IC50 (BCL-XL) [µM] | Compound
5.79 µM | > 20 | CCc1nn(C)c2c1-c1c(F)ccc3c(CCCOc4ccc(F)c5ccccc45)c(C(=O)O)n(c13)CCCCOC2 (single isomer, unassigned; enantiomer 1) [Example 42, 3-ethyl-4-fluoro-7-{3-[(4-fluoronaphthalen-1-yl)oxy]propyl}-1-methyl-1,10,11,12,13,15-hexahydropyrazolo[4′,3′:9,10][1,6]oxazacycloundecino[8,7,6-hi]indole-8-carboxylic acid (enantiomer 1)]
1.77 µM and 3.04 µM | > 20 | (rac)-1-(3-((2,3-dihydro-1H-inden-4-yl)oxy)propyl)-12-ethyl-13-fluoro-11-methyl-4,5,6,7,9,11-hexahydropyrazolo[4′,3′:9,10][1]oxa[6]azacycloundecino[8,7,6-hi]indole-2-carboxylic acid [Example 30]
